{
  "source": "patent US20240350480A1",
  "about": "“STABLE PHARMACEUTICAL COMPOSITION OF METHYLNALTREXONE FOR AN ORAL ADMINISTRATION” (Lupin Limited, priority 2023, published 2024)",
  "origin": "cited, not measured here",
  "details": "oral administration",
  "data": [
    {"smiles": "C[N+]1(CC2CC2)CC[C@]23c4c5ccc(O)c4O[C@H]2C(=O)CC[C@@]3(O)[C@H]1C5.[Br-]", "note": "(stereo partly shown) [methylnaltrexone]", "values": [
      {"measurement": "Methylnaltrexone absorbed into the bloodstream", "result": "less than 5%"}
    ]}
  ]
}
